Patent US9156906B2, “Glycopeptides and methods of making and using them” (THE REGENTS OF THE UNIVERSITY OF CALIFORNIA, priority 2008, dated 2015)
Where a SMILES comes first, the peptide text is derived from it. Where no end group is shown, it is not given here. The star is where a group is joined. X1 = CC(=O)N[C@@H]1[C@@H](O[C@@H]2O[C@H](CO)[C@H](O)[C@H](O)[C@H]2O)[C@@H](O)[C@@H](CO)O[C@@H]1*; GalNAc = N-acetylgalactosamine (GalNAc, 2-acetamido-2-deoxy-D-galactopyranose); αGalNAc = CC(=O)N[C@@H]1[C@@H](O)[C@@H](O)[C@@H](CO)O[C@@H]1*

What was measured:
[1] = tested on: naïve CD8+ T cells of healthy A2 donors; assay: In vitro priming of naive cytotoxic T cells from PBMC of normal A2+ donors, 51Cr release on T2 cells; type: cell-based, human; settings: for number of specific CTL lines out of the 12, Donor 1 / number of specific CTL lines out of the 12, Donor 2 / number of specific CTL lines out of the 12, Donor 3 / number of specific CTL lines out of the 12, Donor 4 / number of specific CTL lines out of the 12, Donor 5 / number of specific CTL lines out of the 12, Donor 6 / number of specific CTL lines out of the 12, Donor 7: net specific lysis ≧20%, day 10, T2 targets 3:1 E/T; for Total number of specific CTL lines: sum over 7 donors;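 as to all read-outs here: CTL lines primed by co-culturing PBMC with autologous antigen-pulsed mature dendritic cells, 12 lines per antigen, lysis net of unpulsed T2 cell background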
Protocol: Seven A2+ healthy individuals, never exposed to HBV or HIV, between ages 40 and 57, were included in the study. Autologous, antigen-pulsed, mature dendritic cells (DC) were used as antigen presenting cells (APCs) for the in vitro priming. Autologous DC were cultured with granulocyte/macrophage colony stimulating factor (GM-CSF) (kindly provided by Kirin, Japan) and interleukin (IL) 4 (Peprotech, Rocky Hill, N.J.).
DC were previously pulsed for 2 hours with glycopeptides(s) or peptide(s). Each well defined an individual CTL line.
By using the culture conditions and IL2 regimen optimized over several years in our laboratory, the large majority of the PBMC in culture are T cells at day 10. CD8+ T cells represent the majority.
T cell cultures were tested for specificity at day 10 in a ^51Cr release assay. T2 cells (A2) were used as targets at 3:1 E/T ratio. T cell lines primed in vitro with glycopeptides were tested for the ability to recognize T2 cells pulsed with the glycopeptides, or the peptide backbones, or to untreated T2 cells (background control). Peptide-primed T cell lines were also tested for their ability to respond to peptides and cross-react with the corresponding GalNAc-O-S modified sequence.
CTL lines showing a net specific lysis ≧20% were considered specific. Carbohydrate recognition was defined as a specific response to the glycopeptides, after subtracting the background and the specific response to the corresponding peptide backbone.

[2] = tested on: C57BL/6 mice; assay: Immunization of wild type C57BL/6 mice, generation of cytotoxic T cells; type: in vivo, mouse; settings: wild type C57BL/6 mice (H-2^b)
Protocol: These studies were performed in vivo by injecting Tn-containing glycopeptides in: 1) wild type mice (C57BL/6, H-2^b); and 2) MUC1/MT double transgenic mice (H-2^b) that develop spontaneous tumors expressing the Tn carbohydrate molecule within 12 weeks of age.

[3] = tested on: β-Gal-[1->3]-α-GalNAc-O-specific T cell clones; assay: 51Cr release cytotoxicity assay with TF-specific CTL clones on antigen-pulsed EL-4 targets (fine specificity, cross-reactivity); type: cell-based, mouse; settings: clones B1, C3, D4, 5:1 E/T
Protocol: CTL clones were generated in C57BL/6 mice (H-2^b) immunized with a K^b-restricted designer alanine-rich glycopeptide sequence that contained TF, sequence: • AIIA(β-Gal-[1->3]-α-GalNAc-O-serine)FAAL
TF-specific CTL clones were tested for the capacity to cross-react to a glycopeptide with a completely unrelated sequence but carrying the sugar at the same position (5 within a 9mer). For this analysis, we designed a modified Sendai virus immunodominant epitope NP 324-332 (5N->5S-TF), sequence: • FAPG (β-Gal-[1->3]-α-GalNAc-O-S)YPAL This epitope is an ideal proof concept because when bonded to K^b class I MHC molecules it exposes position 5 as a major TcR contact.
To define the role of the glycosylated amino acid linker for sugar recognition by T cells, the same T cell clones were also tested for cross-reactivity to three alanine-rich glycopeptides with identical sequences as the immunogen: AIIA(β-Gal-[1->3]-α-GalNAc-O-serine)FAAL, but where TF was linked to different amino acid residues.
T cells were studied with a classic ^51Cr release cytotoxicity assay at a 5:1 effector/target (E/T) ratio. The EL-4 thymoma cell line (H-2)^b, class II MHC negative, was used as the target in these experiments. The cytolytic response to EL-4 cells in the absence of glycopeptides (background) was also assayed, and subtracted, to quantify the net specific lysis. […]

[4] = tested on: A2 class I MHC molecules; assay: A2 binding affinity of glycopeptides; set-up: species or system human
[5] = clear solution with no visible particulates
From the text: Solubility is defined as a clear solution with no visible particulates.

[6] = tested on: cancer patients; settings: variety of different formulations; cited from earlier work
[7] = tested on: MUC1/MT transgenic mice; assay: Glycopeptide vaccination of tumor bearing MUC1/MT transgenic mice, CTL activity by 51Cr release on EL-4; settings: MUC1/MT mice 14, 18, 24 weeks old; glycopeptide in IFA; EL-4 targets
Protocol: In these experiments, MUC1/MT mice have been chosen according to age and tumor development.
Seven days after priming, mice were sacrificed. Splenocytes from each experimental group were pooled and stimulated in vitro in the presence of the glycopeptide that was used as immunogen and irradiated B cell blasts as antigen presenting cells (APCs). After 5 days in culture, cells were collected, purified over Ficoll gradient, and T cell blasts were cultured in complete RPMI conditioned with supernatant from ConA-activated splenocytes as an IL2 source. Two days later (day 7 in culture) T cells were tested for CTL activity.
Carbohydrate and peptide specificity were studied in a standard ^51Cr release assay using the lymphoma EL-4 (H-2^b) cell line as target at different effector: target ratios (E/T) in duplicate, with and without antigens. […] Net specific lysis has been calculated by subtracting the cytolytic response to EL-4 cells alone without antigens defined as background. Data were calculated as % cytotoxicity=[(sample-spontaneous release)/(maximum release-spontaneous release)]×100.
Specificity of primary CTL cultures tested in a ^51Cr release assay is shown. […] EL-4 cells plated with T cell blasts in the absence of antigens have been assessed in duplicate at every E/T ratio to determine the extent of non-specific lysis. […]

## CC(=O)N[C@H]1[C@@H](OC[C@H](NC(=O)[C@@H]2CCCN2C(=O)[C@H](CC(C)C)NC(=O)[C@@H](N)Cc2ccccc2)C(=O)N[C@@H](CC(=O)O)C(=O)N[C@@H](Cc2ccccc2)C(=O)N[C@@H](Cc2ccccc2)C(=O)N2CCC[C@H]2C(=O)N[C@@H](CO)C(=O)N[C@H](C(=O)O)C(C)C)O[C@H](CO)[C@H](O)[C@@H]1O
[1]
  number of specific CTL lines out of the 12, Donor 1: 5
  number of specific CTL lines out of the 12, Donor 2: 5
  number of specific CTL lines out of the 12, Donor 3: 1
  number of specific CTL lines out of the 12, Donor 4: 3
  number of specific CTL lines out of the 12, Donor 5: 4
  number of specific CTL lines out of the 12, Donor 6: 2
  number of specific CTL lines out of the 12, Donor 7: 4
  Total number of specific CTL lines: 24

## CC[C@H](C)[C@H](NC(=O)[C@H](C)N)C(=O)N[C@H](C(=O)N[C@@H](C)C(=O)N[C@@H](CO[C@H]1O[C@H](CO)[C@H](O)[C@H](O[C@@H]2O[C@H](CO)[C@H](O)[C@H](O)[C@H]2O)[C@H]1NC(C)=O)C(=O)N[C@@H](Cc1ccccc1)C(=O)N[C@@H](C)C(=O)N[C@@H](C)C(=O)N[C@@H](CC(C)C)C(=O)O)[C@@H](C)CC [AIIA(β-Gal-[1->3]-α-GalNAc-O-serine)FAAL] (H-AIIAS(X1)FAAL-OH; N-terminus and C-terminus assumed)
[2]
  cytotoxic T cell response generated by immunization: generate primary and memory TF-specific cytotoxic T cells in C57BL/6 mice in the absence of Th
[3]
  cytolytic response of TF-specific CTL clones to antigen (51Cr release, net lysis): high affinity/avidity

## CC(=O)N[C@H]1[C@@H](OC[C@H](NC(=O)[C@H](C)NC(=O)[C@H](CC(C)C)NC(=O)[C@H](C)N)C(=O)N[C@@H](C)C(=O)N[C@@H](C)C(=O)N[C@@H](C)C(=O)N[C@@H](C)C(=O)N[C@H](C(=O)O)C(C)C)O[C@H](CO)[C@H](O)[C@@H]1O [ALA(GALNAc-O-S)SAAAAV]
[4]
  A2 affinity (in words): affinity slightly higher than the corresponding peptide but still efficiently

## CC(=O)N[C@H]1[C@@H](OC[C@H](NC(=O)CNC(=O)[C@H](CC(C)C)NC(=O)[C@H](C)N)C(=O)N[C@H](C(=O)N[C@@H](C)C(=O)N2CCC[C@H]2C(=O)N2CCC[C@H]2C(=O)N[C@H](C(=O)O)C(C)C)[C@@H](C)O)O[C@H](CO)[C@H](O)[C@@H]1O [ALG(Tn-S)TAPPV]
[4]
  A2 affinity (in words): very high affinity

## CC(=O)N[C@H]1[C@@H](O[C@H](C)[C@H](NC(=O)[C@H](CC(=O)O)NC(=O)[C@@H]2CCCN2C(=O)[C@H](Cc2ccccc2)NC(=O)[C@H](CC(C)C)NC(=O)[C@@H](N)Cc2ccccc2)C(=O)N[C@@H](CCCNC(=N)N)C(=O)N[C@@H](C)C(=O)N[C@H](C(=O)O)C(C)C)O[C@H](CO)[C@H](O)[C@@H]1O [FLFPD(GalNAc-T)RAV] (H-FLFPDT(αGalNAc)RAV-OH; N-terminus and C-terminus assumed)
[4]
  A2 affinity (in words): very high affinity
[5]
  solubility when diluted in Dimethylsulfoxide (DMSO): very soluble

## CC(=O)N[C@H]1[C@@H](O[C@H](C)[C@H](NC(=O)[C@H](CC(=O)O)NC(=O)[C@@H]2CCCN2C(=O)[C@H](Cc2ccccc2)NC(=O)[C@H](CC(C)C)NC(=O)[C@@H](N)Cc2ccccc2)C(=O)N[C@@H](CCCNC(=N)N)C(=O)N[C@@H](Cc2ccc(O)cc2)C(=O)N[C@H](C(=O)O)C(C)C)O[C@H](CO)[C@H](O)[C@@H]1O [FLFPD(Tn-T)RYV] (H-FLFPDT(αGalNAc)RYV-OH; N-terminus and C-terminus assumed)
[4]
  A2 affinity (in words): very high affinity
[5]
  solubility when diluted in Dimethylsulfoxide (DMSO): very soluble

## CC(=O)N[C@H]1[C@@H](O[C@H](C)[C@H](NC(=O)[C@H](CC(=O)O)NC(=O)[C@@H]2CCCN2C(=O)[C@H](CC(C)C)NC(=O)[C@@H](N)Cc2ccccc2)C(=O)N[C@@H](CCCNC(=N)N)C(=O)N[C@@H](Cc2ccccc2)C(=O)N[C@@H](Cc2ccc(O)cc2)C(=O)N[C@H](C(=O)O)C(C)C)O[C@H](CO)[C@H](O)[C@@H]1O [FLPD(GalNAc-T)RFYV] (H-FLPDT(αGalNAc)RFYV-OH; N-terminus and C-terminus assumed)
[4]
  A2 affinity (in words): very high affinity
[5]
  solubility when diluted in Dimethylsulfoxide (DMSO): very soluble

## CC(=O)N[C@H]1[C@@H](OC[C@H](NC(=O)[C@H](CO)NC(=O)[C@H](Cc2ccc(O)cc2)NC(=O)[C@H](CC(C)C)NC(=O)CN)C(=O)N[C@H](C(=O)N[C@H](C(=O)N2CCC[C@H]2C(=O)N[C@H](C(=O)O)C(C)C)C(C)C)[C@@H](C)O)O[C@H](CO)[C@H](O)[C@@H]1O [GLYS(GalNAc-O-S)TVPV]
[1]
  number of specific CTL lines out of the 12, Donor 1: 6
  number of specific CTL lines out of the 12, Donor 2: 2
  number of specific CTL lines out of the 12, Donor 3: 1
  number of specific CTL lines out of the 12, Donor 4: 1
  number of specific CTL lines out of the 12, Donor 5: 4
  number of specific CTL lines out of the 12, Donor 6: 4
  number of specific CTL lines out of the 12, Donor 7: 2
  Total number of specific CTL lines: 20

## CC(=O)N[C@H]1[C@@H](OC[C@H](NC(=O)[C@@H](NC(=O)[C@H](CC(C)C)NC(=O)[C@@H](N)[C@@H](C)O)[C@@H](C)O)C(=O)N[C@@H](CS)C(=O)N[C@@H](CC(N)=O)C(=O)N[C@H](C(=O)N[C@@H](CO)C(=O)N[C@H](C(=O)O)C(C)C)[C@@H](C)O)O[C@H](CO)[C@H](O)[C@@H]1O [TLT(GalNAc-O-S)CNTSV] (H-TLTS(αGalNAc)CNTSV-OH; N-terminus and C-terminus assumed)
[1]
  number of specific CTL lines out of the 12, Donor 1: 7
  number of specific CTL lines out of the 12, Donor 2: 4
  number of specific CTL lines out of the 12, Donor 3: 0
  number of specific CTL lines out of the 12, Donor 4: 1
  number of specific CTL lines out of the 12, Donor 5: 5
  number of specific CTL lines out of the 12, Donor 6: 1
  number of specific CTL lines out of the 12, Donor 7: 5
  Total number of specific CTL lines: 23

## CC(=O)N[C@@H]1[C@@H](O)[C@@H](O)[C@@H](CO)O[C@@H]1O [Tn, α-GalNAc]
[6]
  safety and tolerability in clinical trials: safe and well tolerated

## AIIA(GalNAc-O-S)FAAL (AIIAS(GalNAc)FAAL)
[7]
  CTL activity after vaccination: Strong CTL activity

## FAPG (β-Gal-[1->3]-α-GalNAc-O-S)YPAL
[3]
  cytolytic response of TF-specific CTL clones to antigen (51Cr release, net lysis): good cytolytic activity
